Experimental data: patent publication US20240285652A1, “AMORPHOUS NANO-MOLECULAR AGGREGATE COMPOSED OF ORGANIC MATERIAL, INORGANIC MATERIAL, OR SALT THEREOF, AND METHOD FOR PREPARING SAME” (SCAI THERAPEUTICS CO., LTD., priority 2021, published 2024)

Assay: Corneal permeation experiment in Ussing chamber
Format: in vitro ADME
Details: pig cornea, 37° C., after 18 hours
Protocol: The corneal permeation experiment was conducted with reference to the contents of “Lee et. al, “Modulating the Transport Characteristics of Bruch's Membrane With Steroidal Glycosides and its Relevance to Age-Related Macular Degeneration (AMD). Invest. Ophthalmol. Vis. Sci. 2015, 56, 8403, 2015,” which is an already published paper. […] Basically, the drug is put into the donor chamber of the Ussing chamber, the corneal part of the pig eye is collected in a circular shape of 8 mm in size, and other tissues attached to the cornea were removed, and then fixed in place of the membrane, and the solution permeating the membrane was received in the receiving chamber, and at this time, it was placed in a constant temperature chamber in which the temperature at which diffusion occurs was adjusted to 37° C., which is close to human body temperature, and stored. After a certain amount of time passed, the diffusion properties of each sample could be identified by measuring the concentration of the solution in each donor chamber and receiving chamber. For the concentration, UV/VIS spectrum (Evolution201 UV/Vis; Thermo) was used, and the concentration was measured using a peak height at 420 nm.

- Drug in corneal tissue (μg, Mean ± SD): 65.7 ± 7.5 µg
- Drug in receiver (μg, Mean ± SD): 8.8 ± 5.8 µg
- Transport percentage* (%, Mean ± SD): 1.6 ± 1.1%
Structure (SMILES): CCN(CC)CCNC(=O)c1c(C)[nH]c(/C=C2\C(=O)Nc3ccc(F)cc32)c1C [Comparative Example 2, sunitinib-malate]
